Read-outs that look alike come from different tables or passages of the source.
How the values were obtained:
α4-GFPβ2DM nAChRs = biological target: T1, α4-GFPβ2DM nAChRs (Mus musculus, UniProt O70174+Q9ERK7, L349M/R365A/R366A/R368A); experiment: Whole-cell patch-clamp recordings in transfected neuro-2a cells; assay type: cell-based; settings: α4β2 single component, transfected in Neuro-2a cells
T1 construct: expressed in transfected cells; host or cells: mouse neuroblastoma neuro-2a (ATCC CCL-131)
Experimental: (§1) Cells were transfected with 500 ng of: α4-GFP and β2DM or α6-GFP, β2DM, and β3 nAChR subunits.
(§2) For the patch-clamp experiments, we used mouse neuro-2a cells. […] Transfected cells displaying eGFP fluorescence were identified for patching using an inverted epifluorescence microscope. […] The resistance of the patch pipettes was 2–4 MΩ. The extracellular solution contained (in mM): 140 NaCl, 5 KCl, 2 CaCl2, 1 MgCl2, 10 HEPES, and 10 glucose (320 mOsm, pH set to 7.3 with Tris-base). […] The data were sampled at 10 kHz and low-pass filtered at 2 kHz prior to digitization. All experiments were performed at 24°C and the recording chamber was continually perfused with extracellular solution. To avoid receptor desensitization by repetitive agonist application, agonists were applied at intervals ≥3 min. An Octaflow II superfusion system (ALA Scientific Instruments) was used to apply the agonist for concentration-response studies. Applications were 500 ms at 6 psi. […] Following the collection of the full concentration range an additional test pulse was repeated to assess accumulated desensitization.
(§3) Data were fit to a single Hill term using Origin 10 software. Data are expressed as mean ± SEM.

α6-GFPβ2DMβ3 nAChRs = biological target: T2, α6-GFPβ2DMβ3 nAChRs (Mus musculus, UniProt Q9ERK7+Q9R0W9, L349M/R365A/R366A/R368A); experiment: as above; assay type: cell-based
T2 construct: expressed in transfected cells; host or cells: mouse neuroblastoma neuro-2a (ATCC CCL-131)
Experimental: as §1, §2, §3

α3β4* nAChRs = biological target: T3, α3β4* nAChRs (Mus musculus, UniProt Q8R493+Q8R4G9); experiment: [3H]ACh release from interpeduncular nucleus synaptosomes; assay type: biochemical; settings: IPN synaptosomes
T3 construct: from tissue
Experimental: Regions of interest were dissected from fresh mouse brains and homogenized in ice-cold isotonic sucrose (0.32 M), buffered with HEPES (5 mM, pH 7.5). The suspension was centrifuged at 12,000 × g for 20 min. The pellet was re-suspended in the appropriate uptake buffer ([Grady et al., 2001]; [Salminen et al., 2004]; [Marks et al., 2006]) and used immediately.
Previously published methods for [^3H]ACh release from crude IPN synaptosomes were followed ([Grady et al., 2001]). Agonist-stimulated ^86Rb^+ efflux from synaptosomes was measured using previously described methods ([Marks et al., 1999], [2007]).

CYP1A2 = experiment: Turnover by recombinantly expressed human cytochrome P450 isoforms; assay type: in vitro ADME; settings: 100 pmol/mL enzyme, 37 °C
Experimental: (§4) S2 Table. In vitro metabolism of TC299423, compared w ith varenicline.
(§5) Human Rat microsomes Turnover by human cytochrome P450 isoforms […]
(§6) The assay mixtures (final incubation volume of 125 μL) in 0.255 M phosphate buffer with 0.575% (w/v) KCl (pH 7.4) contained PiB (1.0 μM), […] a recombinantly expressed cytochrome P450 enzyme preparation (1A2, 2C9, 2C19, 2D6, 3A4, and FMO3) at 100 pmol/mL. After a 10 min preincubation at 37 °C, the reaction was initiated by addition of 2.0 mM NADPH and incubated for 60 min. The reactions were terminated by the addition of two volumes of DMSO. Samples were subsequently centrifuged at 4,000 rpm for 10 min. From the resulting supernatant, 10 μ L was analyzed by liquid chromatography/tandem mass spectrometry (LC-MS/MS). Control experiments were performed by substituting the active enzyme preparation by cell preparations containing no recombinant human CYP. a, Data for clearance are given as μL /min/mg protein. […]
(§7) c, Data for cytochrome P450 turnover and for human flavin- containing monooxygenase 3 (FMO3) are given as percent decline over 60 min.

CYP2C19 = experiment: as above; assay type: in vitro ADME; settings: 100 pmol/mL enzyme, 37 °C
Experimental: as §4, §5, §6, §7

CYP2C9 = experiment: as above; assay type: in vitro ADME; settings: 100 pmol/mL enzyme, 37 °C
Experimental: as §4, §5, §6, §7

CYP2D6 = experiment: as above; assay type: in vitro ADME; settings: 100 pmol/mL enzyme, 37 °C
Experimental: as §4, §5, §6, §7

CYP3A4 = experiment: as above; assay type: in vitro ADME; settings: 100 pmol/mL enzyme, 37 °C
Experimental: as §4, §5, §6, §7

Adrenergic, Beta 1 (h) = experiment: NovaScreen competition binding; design: species or system human; settings: 1 µM
[1] = tested on: Glutamate, Kainate Site (Ionotropic); experiment: NovaScreen competition binding; settings: 1 µM
Histamine, H2 = tested on: T4, Histamine, H2; experiment: NovaScreen competition binding; settings: 1 µM
T4 construct: PerkinElmer – Caliper Life Sciences (NovaScreen)

Serotonin, 5HT2A = experiment: NovaScreen competition binding; settings: 1 µM
Sigma 2 = experiment: NovaScreen competition binding; settings: 1 µM
[2] = tested on: Potassium Channel, I[Kr] (hERG) (h); experiment: NovaScreen competition binding; design: species or system human; settings: 1 µM
[3] = tested on: hERG potassium channel (IKr); experiment: NovaScreen competition binding; design: species or system human; settings: human, probe [3H]Astemizole, [3H]Astemizole
Endothelin, ET-A (h) = tested on: T5, Endothelin, ET-A (h); experiment: NovaScreen competition binding; design: species or system human; settings: 1 µM
T5 construct: PerkinElmer – Caliper Life Sciences (NovaScreen service)

T2 sequence (Q8BMN3 31-464, stated change not applied): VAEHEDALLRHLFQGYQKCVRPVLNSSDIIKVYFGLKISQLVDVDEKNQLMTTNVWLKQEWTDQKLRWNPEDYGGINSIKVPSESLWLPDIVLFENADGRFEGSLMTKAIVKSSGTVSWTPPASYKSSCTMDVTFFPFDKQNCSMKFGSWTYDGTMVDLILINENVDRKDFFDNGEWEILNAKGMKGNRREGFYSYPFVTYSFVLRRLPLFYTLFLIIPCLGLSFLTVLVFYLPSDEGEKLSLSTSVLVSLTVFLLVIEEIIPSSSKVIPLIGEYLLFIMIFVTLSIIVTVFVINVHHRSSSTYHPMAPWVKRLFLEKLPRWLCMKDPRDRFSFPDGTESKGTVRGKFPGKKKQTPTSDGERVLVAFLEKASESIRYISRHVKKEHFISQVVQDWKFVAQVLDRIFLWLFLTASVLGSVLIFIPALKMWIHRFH
T2 sequence (Q9R0W9 31-494): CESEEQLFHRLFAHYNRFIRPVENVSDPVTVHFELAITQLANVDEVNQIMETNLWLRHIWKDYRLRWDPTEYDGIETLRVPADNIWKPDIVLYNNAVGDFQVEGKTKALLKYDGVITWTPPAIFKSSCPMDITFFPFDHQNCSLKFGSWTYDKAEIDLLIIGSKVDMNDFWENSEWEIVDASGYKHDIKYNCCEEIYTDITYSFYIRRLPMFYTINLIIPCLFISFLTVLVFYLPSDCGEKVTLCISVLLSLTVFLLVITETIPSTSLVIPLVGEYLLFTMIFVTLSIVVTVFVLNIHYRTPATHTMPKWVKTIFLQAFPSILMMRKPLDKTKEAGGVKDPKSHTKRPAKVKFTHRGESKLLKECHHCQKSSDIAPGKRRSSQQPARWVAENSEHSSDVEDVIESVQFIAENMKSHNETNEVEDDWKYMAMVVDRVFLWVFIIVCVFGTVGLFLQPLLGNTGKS
T2 sequence (Q9ERK7 26-501 L349M/R365A/R366A/R368A): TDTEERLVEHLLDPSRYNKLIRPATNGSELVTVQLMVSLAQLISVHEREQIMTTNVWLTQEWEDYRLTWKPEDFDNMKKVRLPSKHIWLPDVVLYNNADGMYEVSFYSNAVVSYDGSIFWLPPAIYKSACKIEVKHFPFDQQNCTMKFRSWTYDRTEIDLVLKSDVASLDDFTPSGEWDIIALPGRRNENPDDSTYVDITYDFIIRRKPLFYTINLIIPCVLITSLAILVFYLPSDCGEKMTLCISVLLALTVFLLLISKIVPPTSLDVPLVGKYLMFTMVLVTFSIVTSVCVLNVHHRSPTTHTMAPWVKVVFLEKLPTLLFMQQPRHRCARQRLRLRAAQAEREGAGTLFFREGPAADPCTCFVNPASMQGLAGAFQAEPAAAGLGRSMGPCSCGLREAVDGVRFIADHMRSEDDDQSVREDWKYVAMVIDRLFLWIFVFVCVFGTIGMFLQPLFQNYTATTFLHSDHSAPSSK
T3 sequence (Q8R4G9 26-499): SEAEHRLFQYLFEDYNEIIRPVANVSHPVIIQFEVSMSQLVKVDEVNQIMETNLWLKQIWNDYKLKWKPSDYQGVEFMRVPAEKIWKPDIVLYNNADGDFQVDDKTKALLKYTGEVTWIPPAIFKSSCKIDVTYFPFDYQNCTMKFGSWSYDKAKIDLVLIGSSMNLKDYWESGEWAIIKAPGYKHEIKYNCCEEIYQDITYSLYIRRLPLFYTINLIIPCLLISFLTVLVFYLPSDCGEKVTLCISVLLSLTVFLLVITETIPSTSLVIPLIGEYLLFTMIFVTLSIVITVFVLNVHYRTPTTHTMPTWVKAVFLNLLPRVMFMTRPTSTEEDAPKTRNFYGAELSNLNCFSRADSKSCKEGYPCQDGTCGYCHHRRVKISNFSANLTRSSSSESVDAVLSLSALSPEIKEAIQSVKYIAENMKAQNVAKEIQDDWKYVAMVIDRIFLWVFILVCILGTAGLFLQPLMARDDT
T3 sequence (Q8R493 21-495): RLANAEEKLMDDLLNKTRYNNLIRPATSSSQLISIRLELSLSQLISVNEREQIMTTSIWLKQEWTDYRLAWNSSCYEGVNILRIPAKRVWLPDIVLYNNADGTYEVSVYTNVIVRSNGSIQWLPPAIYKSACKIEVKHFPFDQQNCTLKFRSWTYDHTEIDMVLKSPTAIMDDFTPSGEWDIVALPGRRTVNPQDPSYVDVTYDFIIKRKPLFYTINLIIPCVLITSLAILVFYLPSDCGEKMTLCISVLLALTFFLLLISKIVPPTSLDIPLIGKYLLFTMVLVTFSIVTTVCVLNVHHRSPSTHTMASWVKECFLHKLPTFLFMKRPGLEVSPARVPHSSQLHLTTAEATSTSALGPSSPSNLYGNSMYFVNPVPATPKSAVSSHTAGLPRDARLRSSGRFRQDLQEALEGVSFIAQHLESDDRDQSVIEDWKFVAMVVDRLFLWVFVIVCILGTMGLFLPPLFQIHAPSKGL
T1 sequence (O70174 31-629): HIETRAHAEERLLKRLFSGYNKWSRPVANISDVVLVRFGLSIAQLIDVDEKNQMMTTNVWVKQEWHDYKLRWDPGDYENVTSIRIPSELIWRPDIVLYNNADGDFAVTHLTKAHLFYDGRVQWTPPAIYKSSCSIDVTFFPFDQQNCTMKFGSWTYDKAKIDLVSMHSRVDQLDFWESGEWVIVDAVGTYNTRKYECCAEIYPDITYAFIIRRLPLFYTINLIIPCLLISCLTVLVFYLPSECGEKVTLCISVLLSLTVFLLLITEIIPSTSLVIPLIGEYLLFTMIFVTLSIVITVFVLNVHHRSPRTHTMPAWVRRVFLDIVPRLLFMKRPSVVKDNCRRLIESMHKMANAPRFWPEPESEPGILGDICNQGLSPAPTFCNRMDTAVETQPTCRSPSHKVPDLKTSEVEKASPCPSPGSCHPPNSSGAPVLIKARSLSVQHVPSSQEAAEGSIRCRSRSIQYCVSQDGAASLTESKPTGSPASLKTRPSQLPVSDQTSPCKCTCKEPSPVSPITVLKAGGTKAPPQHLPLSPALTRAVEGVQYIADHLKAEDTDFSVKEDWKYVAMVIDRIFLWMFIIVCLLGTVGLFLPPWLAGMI
T1 sequence (Q9ERK7 26-501 L349M/R365A/R366A/R368A): as the sequence (Q9ERK7 26-501 L349M/R365A/R366A/R368A) above

Molecule C1=C(/c2cncnc2)CCCNCC/1 [TC299423, (E)-5-(pyrimidin-5-yl)-1,2,3,4,7,8-hexahydroazocine] has an EC50 (α4-GFPβ2DM nAChRs) of 100 ± 20 nM, an EC50 (α6-GFPβ2DMβ3 nAChRs; range over patch-clamp recordings and [3H]-dopamine release assays, read-out: EC50 for α6β2* nAChRs) of 30 to 60 nM and an EC50 (α6-GFPβ2DMβ3 nAChRs; α6β2β3 transfected in Neuro-2a cells, read-out: Patch clamp EC50) of 40 ± 10 nM. The EC50 (α3β4* nAChRs; read-out: Neurotransmitter release EC50 (converted)) was 8000 nM, the Emax (α3β4* nAChRs; relative to nicotine, read-out: Neurotransmitter release % Efficacy) was 100 ± 16% and the “Turnover by CYP1A2” value (CYP1A2) was 3 percent decline over 60 min. For the same molecule, the “Turnover by CYP2C19” value (CYP2C19) was 4 percent decline over 60 min, the “Turnover by CYP2C9” value (CYP2C9) was 8 percent decline over 60 min and the “Turnover by CYP2D6” value (CYP2D6) was 42 percent decline over 60 min. The “Turnover by CYP3A4” value (CYP3A4) was 7 percent decline over 60 min, the Hit (Adrenergic, Beta 1 (h)) was “FALSE” and the Inhibition (Adrenergic, Beta 1 (h); [125I] (-) Iodocyanopindolol) was 11.21%. The Hit [1] was “FALSE”, the Inhibition ([1]; [3H]Kainic acid) was -6.93% and the Hit (Histamine, H2) was “FALSE”. The Inhibition (Histamine, H2; [125I]-Aminopotentidine) was 6.50%, the Hit (Serotonin, 5HT2A) was “FALSE” and the Inhibition (Serotonin, 5HT2A; [3H]Ketanserin) was 12.43%. The Hit (Sigma 2) was “FALSE”, the Inhibition (Sigma 2; [3H]-DTG) was -0.65% and the Hit [2] was “FALSE”. The inhibition at 1 µM [3] was 14.5%, the Hit (Endothelin, ET-A (h)) was “FALSE” and the Inhibition (Endothelin, ET-A (h); [125I] Endothelin-1) was 8.93%.
